Series [1] has as its system FMDV C-S8. In words: microbe, parasite or virus in culture. The format is cell-based, foot and mouth disease virus.
Series [2] can be described thus: MTT cell viability assay. Particulars: African green monkey, Vero cells. For orientation: Formazan colour is commonly taken as a measure of viable cells.
Another series concerns VSV. Particulars: cited from earlier work.
The subject of another series is SVDV. Particulars: ref Vazquez-Calvo et al., 2011; cited from earlier work.
In series [3] the test system is FMDV. Further details: species or system foot and mouth disease virus.
The test system of series [4] is FMDV. Particulars: cited from earlier work.
The test system of series [5] is ASFV Ba71V. In words: microbe, parasite or virus in culture. The format is cell-based, African swine fever virus. Particulars: for IC50: African swine fever virus.
The test system of series [6] is ASFV Ba71V. The format is cell-based, African swine fever virus.
Another series has as its system ASFV isolate E70. In words: microbe, parasite or virus in culture. The series is classed as cell-based. Particulars: African swine fever virus, COS, read-out: IC50 on virus yield.
The subject of the next series is ASFV. The arrangement: species or system African swine fever virus.
The test system of series [7] is ASFV Ba71V. The format is cell-based, African swine fever virus. This is another data set of the same source.
For series [8], the system named is FMDV C-S8. The arrangement: species or system C57 mice. Particulars: mouse, in vivo.
For series [9] the following is noted: C57, mouse, in vivo.
For another series, the system named is SVDV SP93. In words: microbe, parasite or virus in culture. The format is cell-based, swine vesicular disease virus.
The nature of series [10]: MTT cell viability assay. Particulars: African green monkey, COS cells.
A short description of series [11]: MTT cell viability assay. Particulars: hamster, BHK cells.
Series [12] concerns ASFV Ba71V. Particulars: cited from earlier work.
Series [13] concerns FMDV C-S8. The series is classed as cell-based, foot and mouth disease virus.
Series [14] has as its system FMDV C-S8. The series is classed as cell-based, foot and mouth disease virus. This is another data set of the same source.
Series [15] in a line: MTT cell viability assay. Particulars: pig, IBRS-2 cells.
The next series concerns FMDV O-UK. Briefly: microbe, parasite or virus in culture. The format is cell-based, foot and mouth disease virus.
Series [16] relates to FMDV C-S8. Particulars: mouse, in vivo.
For series [17], the system named is FMDV C-S8. The format is cell-based, foot and mouth disease virus. The source holds these as a separate data set.
For the next series, the system named is VSV Indiana. Briefly: microbe, parasite or virus in culture. The format is cell-based, vesicular stomatitis virus.
Where [18] appears, read: read-out: IC50 on ASFV production.

These results are taken from paper PMC6702965, “Inhibition of Porcine Viruses by Different Cell-Targeted Antiviral Drugs” (Frontiers in Microbiology, 2019).

As usually defined, the CC50 is the concentration at which the toxic effect on the cells reaches its halfway point. The IC50 is the concentration at which inhibition is half-maximal.

Like-named read-outs stand apart in the source and are kept apart here.

Turning to `CCCOC(=O)c1cc(O)c(O)c(O)c1` [PG, propyl gallate], in the series on FMDV C-S8 [1], the “Inhibition of FMDV growth” value is “Neither G nor PG inhibited FMDV growth”.

Regarding `CCCC(CCC)C(=O)O` [VPA, valproic acid], the CC50 at 24 h in the series “MTT cell viability assay [2]” came to 50000 µM. The “Susceptibility of infection to the drug” value in the series on VSV is “susceptible”; with SVDV, “not affected”; with FMDV [4], “not affected”. In addition, the “Direct virucidal effect (virotoxicity)” value with FMDV [3] and in the series with ASFV was “no direct toxicity” each time. Moreover, the IC50 was 2500 to 3000 µM with ASFV Ba71V [5] (setting [18]) and 2500 µM in the series on ASFV isolate E70. Besides, in the series on ASFV Ba71V [6], the “Effect of time of addition on virus yield” value was “gradual recovery of virus yields”. For the same compound, in the series with ASFV Ba71V [7], the “Expression of early virus protein p32” value is recorded as “very low expression”. Moreover, the “Expression of late ASFV proteins (p17, p12)” value with ASFV Ba71V [7] was “No late ASFV proteins”.

`CCCCCCCCCCCCOC(=O)c1cc(O)c(O)c(O)c1` [LG, lauryl gallate]: the CC50 at 24 h in the series “MTT cell viability assay [2]” was determined as 45 µM; in “MTT cell viability assay [10]” it was 33 µM; in “MTT cell viability assay [11]”, 75 µM; in “MTT cell viability assay [15]”, 30 µM. In the series with FMDV C-S8 [8], the “Viral RNA copies (VRC) in blood, spleen, lung, heart and thymus” value is recorded as “significant reduction”. The Non-toxic working concentrations entry in series [9] is “up to 200 mg/kg”. The “Direct virucidal effect (virotoxicity)” value in the series on FMDV [3] and in the series with ASFV was “no direct toxicity” throughout. Also, the “Reduction of virus productivity” value turned out to be 1 log.u in the series on SVDV SP93 and 2 log.u in the series with VSV Indiana. Besides, the IC50 in the series on SVDV SP93 (Enterovirus B, read-out: IC50 on virus yield) was 1.7 µM; in the series with ASFV Ba71V [5] (COS, 24 h, read-out: IC50 on virus yield), 0.4 µM; with ASFV Ba71V [5] (Vero, 24 h, read-out: IC50 on virus yield), 1 µM; in the series with FMDV C-S8 [1] (Foot-and-mouth disease virus, BHK-21, read-out: IC50 on virus yield), 0.2 to 2.5 µM; in the series with ASFV isolate E70, 2 µM; with FMDV O-UK (Foot-and-mouth disease virus, read-out: IC50 on virus yield), 0.7 µM. Further, in the series on VSV Indiana (Vesicular stomatitis virus, BHK-21, read-out: IC50 on virus yield), the IC50 stood at 0.9 µM. Also, the “Time of LG addition up to which virus production was inhibited” value in the series with ASFV Ba71V [12] is listed as “up to 5 h.p.i”. In addition, the “Time of LG addition up to which virus productivity was blocked” value in the series with FMDV C-S8 [13] was “up to 7 h.p.i”. Besides, in the series with ASFV Ba71V [5], the Virus yield reduction result is “about 3 log.u”. The “Decrease in virus production” value with FMDV C-S8 [1] and in the series with FMDV O-UK was “at least 1 log.u” in each case. Besides, in the series with FMDV C-S8 [1], the “Reduction of virus yield” value is recorded as “up to 2 log.u”. Further, the “Expression of structural (VP1) and non-structural (3C) FMDV proteins” value with FMDV C-S8 [14] was “significantly reduced”. In the series on FMDV C-S8 [16], the Body weight result is on record as “lower weights”. Also, in the series with FMDV C-S8 [16], the “Protection against FMDV challenge” value is “no protection”. Further, in the series on FMDV C-S8 [16], the Survival rate is 70%. For the same compound, the “Amount of intracellular FMDV RNA” value in the series on FMDV C-S8 [17] is “not affected”. Also, the “Extracellular virus (RNA)” value in the series with FMDV C-S8 [17] was “significantly reduced”. The “Positive strand viral RNA synthesis” value in the series with FMDV C-S8 [17] was “transiently inhibited”.

Regarding `C/C=C/C/C=C/CCC(=O)[C@H]1O[C@H]1C(N)=O` [CRL, cerulenin], the CC50 at 24 h in “MTT cell viability assay [2]” is 45 µM; in “MTT cell viability assay [10]”, 60 µM; in “MTT cell viability assay [11]”, 60 µM; in the series “MTT cell viability assay [15]”, 40 µM. The “Direct virucidal effect (virotoxicity)” value in the series with FMDV [3] and with ASFV was “no direct toxicity” each time. For the same compound, the 50% inhibitory concentration (IC50) was 9 µM with ASFV Ba71V [5] (setting [18]) and 3 µM in the series on ASFV isolate E70. Besides, in the series with ASFV Ba71V [6], the “Effect of time of addition on virus yield” value is reported as “recovery of virus productivity was observed when CRL was added as early as 0 h after infection”. Further, the “Expression of early virus protein p32” value in the series with ASFV Ba71V [7] is listed as “very low expression”. In addition, the “Expression of late ASFV proteins (p17, p12)” value in the series with ASFV Ba71V [7] is given as “No late ASFV proteins”.

As to `O=C(O)c1cc(O)c(O)c(O)c1` [G, gallic acid], the “Inhibition of FMDV growth” value with FMDV C-S8 [1] is on record as “Neither G nor PG inhibited FMDV growth”.

As for `CCCCCCCCOC(=O)c1cc(O)c(O)c(O)c1` [OG, octyl gallate], the “Effect on ASFV infection” value in the series with ASFV Ba71V [5] is listed as “inhibitory effect”. Moreover, in the series on FMDV C-S8 [1], the “Reduction of virus yields” value is 2 log.u.
